Patent US20230066011A1, “PYRROLOPYRIMIDINE DERIVATIVE, AND PHARMACEUTICAL COMPOSITION FOR PREVENTING OR TREATING PROTEIN KINASE-RELATED DISEASE COMPRISING SAME AS ACTIVE INGREDIENT” (VORONOI CO., LTD., priority 2019, published 2023)
pIC50: −log10 of the molar value.

What was measured:
human GST-DYRK1A = biological target: T1, human GST-DYRK1A (Homo sapiens, UniProt Q13627); experiment: GST-DYRK1A enzyme inhibition, ADP-Glo kinase assay; format: biochemical; conditions: ATP 10 μM, GST-DYRK1A full length, read-out: DYRK1 IC50
T1 construct: purified human GST-DYRK1A (full length, Thermo Scientifics) enzyme; purchased Thermo Scientifics
In short: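 Full-length human GST-DYRK1A (10 ng) with 10 μM ATP and specific substrate in 40 mM Tris-HCl pH 7.4, 20 mM MgCl2, 0.5 mg/mL BSA, 50 μM DTT, 1 h at 25 °C. ADP formation read by ADP-Glo luminescence relative to solvent control; IC50 from three data sets.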

human GST-CLK1 = biological target: T2, human GST-CLK1 (Homo sapiens, UniProt P49759); experiment: GST-CLK1 enzyme inhibition, ADP-Glo kinase assay; format: biochemical; conditions: ATP 10 μM, GST-CLK1 129-end
T2 construct: purified human GST-CLK1 (129-end, SignalChem) enzyme; purchased SignalChem
In short: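 Human GST-CLK1 (129-end, 3 ng) reacted with substrate and 10 μM ATP for 1 h at 25° C in 40 mM Tris-HCl pH 7.4, 20 mM MgCl2, 0.5 mg/mL BSA, 50 μM DTT. ADP-Glo luminescence was normalised to solvent control; IC50 (nM) from 3 data sets.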

human DYRK1A and tau = experiment: Inhibition of tau phosphorylation, ClariCELL Kinase Cell-Based Assay, HEK 293 cells expressing human DYRK1A and tau; conditions: for inhibition at 1 µM: HEK293, read-out: % inhibition at 1 uM, tau phosphorylation, compound 1 uM; for inhibition at 0.25 µM / inhibition at 0.5 µM: HEK293, tau phosphorylation; for inhibition at 0.25 µM: compound 0.25 uM; for inhibition at 0.5 µM: compound 0.5 uM
Method: An inhibitory effect on tau phosphorylation was determined using the ClariCELL™ Kinase Cell-Based Assay service (commercially available from CamaBio USA, Inc.). Human embryonic kidney (HEK 293) cells temporarily expressing human DYRK1A and tau were exposed to the compound, and then lysed to release cell proteins. In this case, the released tau was captured on a plate, and a degree of phosphorylation was quantified by ELISA using a tau phosphorylation-specific antibody.

LRRK2 = LRRK2 (Homo sapiens, UniProt Q5S007); experiment: LRRK2 enzyme inhibition, ADP-Glo kinase assay; format: biochemical; set-up: purchased Invitrogen PR8604B; conditions: ATP 10 μM
In short: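 Purified human LRRK2 (25 ng) with 10 μM ATP and 0.2 μg substrate in 40 mM Tris-HCl pH 7.4, 20 mM MgCl2, 0.5 mg/mL BSA, 50 μM DTT, 2 h at 25° C. ADP-Glo luminescence; 12-point compound series from 50 μM final; IC50 relative to solvent control.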

LRRK2 (G2019S) = LRRK2 (G2019S) (Homo sapiens, UniProt Q5S007, G2019S); experiment: LRRK2 G2019S enzyme inhibition, ADP-Glo kinase assay; format: biochemical; set-up: purchased SignalChem L10-12GG; conditions: ATP 25 μM
In short: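 Purified human LRRK2 G2019S (16 ng) with 25 μM ATP and 0.2 μg substrate, 2 h at 25° C. in Tris-HCl pH 7.4, MgCl2, BSA, DTT buffer; compounds at 12 final concentrations, 50 μM down to 0.000001024 μM. ADP-Glo luminescence versus solvent control gave IC50.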

Chain of LRRK2 (Q5S007 970-2527 limits assumed): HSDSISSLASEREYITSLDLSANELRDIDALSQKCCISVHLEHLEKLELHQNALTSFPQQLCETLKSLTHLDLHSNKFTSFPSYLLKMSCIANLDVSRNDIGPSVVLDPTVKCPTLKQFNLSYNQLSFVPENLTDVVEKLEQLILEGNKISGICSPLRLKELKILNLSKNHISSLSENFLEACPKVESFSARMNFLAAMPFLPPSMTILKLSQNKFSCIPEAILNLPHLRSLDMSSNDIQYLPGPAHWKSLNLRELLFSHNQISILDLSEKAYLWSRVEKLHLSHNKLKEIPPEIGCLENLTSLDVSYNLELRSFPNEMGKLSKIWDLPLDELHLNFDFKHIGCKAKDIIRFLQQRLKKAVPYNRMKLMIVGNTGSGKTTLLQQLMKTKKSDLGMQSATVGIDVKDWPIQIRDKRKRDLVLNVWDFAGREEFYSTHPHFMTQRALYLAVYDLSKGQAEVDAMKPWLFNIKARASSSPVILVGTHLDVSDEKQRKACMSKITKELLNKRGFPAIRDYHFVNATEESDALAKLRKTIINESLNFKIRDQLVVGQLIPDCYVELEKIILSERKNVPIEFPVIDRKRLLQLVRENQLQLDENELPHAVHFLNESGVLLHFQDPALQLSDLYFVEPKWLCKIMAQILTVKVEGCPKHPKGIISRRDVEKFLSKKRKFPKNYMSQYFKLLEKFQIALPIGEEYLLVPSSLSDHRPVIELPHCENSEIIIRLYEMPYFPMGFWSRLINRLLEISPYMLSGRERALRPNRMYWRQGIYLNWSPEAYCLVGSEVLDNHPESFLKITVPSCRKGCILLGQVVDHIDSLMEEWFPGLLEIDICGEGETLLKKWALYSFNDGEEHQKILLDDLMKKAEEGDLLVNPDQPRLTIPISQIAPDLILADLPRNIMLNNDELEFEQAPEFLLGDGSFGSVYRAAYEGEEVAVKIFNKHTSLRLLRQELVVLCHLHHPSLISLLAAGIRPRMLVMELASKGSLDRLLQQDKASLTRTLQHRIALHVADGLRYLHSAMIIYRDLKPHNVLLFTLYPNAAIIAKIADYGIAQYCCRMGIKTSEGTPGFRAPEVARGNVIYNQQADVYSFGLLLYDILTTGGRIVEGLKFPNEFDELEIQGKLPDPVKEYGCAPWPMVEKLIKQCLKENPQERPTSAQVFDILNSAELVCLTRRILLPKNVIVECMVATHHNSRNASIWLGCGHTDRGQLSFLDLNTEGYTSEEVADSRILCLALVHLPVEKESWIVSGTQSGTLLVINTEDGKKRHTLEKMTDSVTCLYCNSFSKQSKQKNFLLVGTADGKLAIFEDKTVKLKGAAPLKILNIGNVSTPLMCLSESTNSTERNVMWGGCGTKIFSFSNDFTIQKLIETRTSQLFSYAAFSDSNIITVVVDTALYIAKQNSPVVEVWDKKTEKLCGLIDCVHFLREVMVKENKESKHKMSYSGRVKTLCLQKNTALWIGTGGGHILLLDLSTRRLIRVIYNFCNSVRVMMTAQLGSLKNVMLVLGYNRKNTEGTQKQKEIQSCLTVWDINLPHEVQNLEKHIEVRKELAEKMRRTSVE
Chain of LRRK2 (G2019S) (Q5S007 970-2527 G2019S limits assumed): as the sequence (Q5S007 970-2527 limits assumed) above, with G1050S counted along it
T2 sequence (P49759 129-484 limits assumed): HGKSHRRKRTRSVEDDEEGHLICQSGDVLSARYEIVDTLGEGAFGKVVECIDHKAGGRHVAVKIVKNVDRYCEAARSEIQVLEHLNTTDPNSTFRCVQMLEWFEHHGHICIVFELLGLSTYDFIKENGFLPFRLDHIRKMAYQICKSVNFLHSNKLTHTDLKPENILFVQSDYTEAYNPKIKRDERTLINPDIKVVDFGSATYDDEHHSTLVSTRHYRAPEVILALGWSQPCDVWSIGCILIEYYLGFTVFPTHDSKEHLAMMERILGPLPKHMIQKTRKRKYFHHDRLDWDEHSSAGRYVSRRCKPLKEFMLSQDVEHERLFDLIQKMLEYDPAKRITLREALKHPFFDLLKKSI

Row | Compound | pIC50 (human GST-DYRK1A) | pIC50 (human GST-CLK1) | pIC50 (LRRK2) | pIC50 (LRRK2 (G2019S)) | inhibition at 1 µM (human DYRK1A and tau) | inhibition at 0.25 µM (human DYRK1A and tau) | inhibition at 0.5 µM (human DYRK1A and tau)
1 | N#Cc1c[nH]c2nc(Nc3ccc(C(=O)N4CCN(C5COC5)CC4)c4c3OCCO4)nc(NC3CCOCC3)c12 [Example 316, 2-((8-(4-(oxetan-3-yl)piperazine-1-carbonyl)-2,3-dihydrobenzo[b] [1,4]dioxin-5-yl)amino)-4-((tetrahydro-2H-pyran-4-yl)amino)-7H-pyrrolo[2,3-d]pyrimidine-5-carbonitrile] | 6.00 to 6.52 | > 7.00 |  |  | 15.8% | 2.3% | 8.3%
2 | N#Cc1c[nH]c2nc(Nc3ccc(C(=O)N4CCC(N5CCOCC5)CC4)c4c3OCC4)nc(NC3CCCCC3)c12 [Example 322, 4-(cyclo-hexylamino)-2-((4-(4-morpholino-piperidine-1-carbonyl)-2,3-dihydro-benzofuran-7-yl)amino)-7H-pyrrolo[2,3-d]pyrimidine-5-carbonitirle] | > 7.00 | > 7.00 | > 7.00 | > 7.00 | 64.3% | -10.5% | 34.2%
3 | CNc1nc(Nc2ccc(C(=O)N3CC(CO)(CO)C3)c3c2OCCO3)nc2[nH]cc(C#N)c12 [Example 325, 2-((8-(3,3-bis(hydroxy-methyl)azetidine-1-carbonyl)-2,3-dihydrobenzo[b] [1,4]dioxin-5-yl)amino)-4-(methylamino)-7H-pyrrolo[2,3-d]pyrimidine-5-carbonitrile] | 6.52 to 7.00 | > 7.00 |  |  | 1.9% | 6.3% | 13.5%
4 | CC[C@H](C)Nc1nc(Nc2ccc(C(=O)N3CCC(N4CCOCC4)CC3)c3c2OCC3)nc2[nH]cc(C#N)c12 [Example 357, (S)-4-(sec-butylamino)-2-((4-(4-morpholino-piperidine-1-carbonyl)-2,3-dihydro-benzofuran-7-yl)amino)-7H-pyrrolo[2,3-d]pyrimidine-5-carbonitrile] | 6.00 to 6.52 | > 7.00 |  | > 7.00 | 35.4% | 19.7% | 33.1%
5 | O=C(c1ccc(Nc2nc(NC3CCC3)c3c(C(F)(F)F)c[nH]c3n2)c2c1OCCO2)N1CCC(N2CCOCC2)CC1 [Example 378, (8-((4-(cyclobutyl-amino)-5-(trifluoromethyl)-7H-pyrrolo[2,3-d]pyrimidin-2-yl)amino)-2,3-dihydrobenzo[b] [1,4]dioxin-5-yl) (4-morpholino-piperidin-1-yl)methanone] | 6.52 to 7.00 | > 7.00 | > 7.00 | > 7.00 |  |  | 
6 | CC(C)Nc1nc(Nc2ccc(C(=O)N3CCN(C4COC4)CC3)c3c2OCCO3)nc2[nH]cc(C(F)(F)F)c12 [Example 441, (8-((4-(isopropylamino)-5-(trifluoromethyl)-7H-pyrrolo[2,3-d]pyrimidin-2-yl)amino)-2,3-dihydrobenzo[b] [1,4]dioxin-5-yl) (4-(oxetan-3-yl)piperazin-1-yl)methanone] | 6.52 to 7.00 | > 7.00 |  |  | 75.5% | 19.6% | 57.4%
7 | CCCCNc1nc(Nc2ccc(C(=O)N3CCC(N4CCOCC4)CC3)c3c2OCC3)nc2[nH]cc(C(F)(F)F)c12 [Example 466, (7-((4-(butylamino)-5-(trifluoromethyl)-7H-pyrrolo[2,3-d]pyrimidin-2-yl)amino)-2,3-dihydrobenzo-furan-4-yl)(4-morpholino-piperidin-1-yl)methanone] | 6.00 to 6.52 | 6.00 to 6.52 |  | > 7.00 | 71.3% | 9.5% | 39.2%

Continued, in another order:

Row | pIC50 (human GST-DYRK1A) | pIC50 (human GST-CLK1) | pIC50 (LRRK2) | pIC50 (LRRK2 (G2019S)) | Compound | inhibition at 1 µM (human DYRK1A and tau) | inhibition at 0.25 µM (human DYRK1A and tau) | inhibition at 0.5 µM (human DYRK1A and tau)
8 | > 7.00 | > 7.00 |  |  | CNc1nc(Nc2ccc(C(=O)N3CCOCC3)c3c2OCC3)nc2[nH]cc(C(F)(F)F)c12 [Example 218, (7-((4-(methylamino)-5-(trifluoromethyl)-7H-pyrrolo[2,3-d]pyrimidin-2-yl)amino)-2,3-dihydrobenzofuran-4-yl)(morpholino)methanone] | 99.4% | 57.7% | 84.3%
9 | 6.00 to 6.52 | > 7.00 |  |  | N#Cc1c[nH]c2nc(Nc3ccc(C(=O)N4CCN(C5COC5)CC4)c4c3OCCO4)nc(N[C@H]3CCOC3)c12 [Example 315, (S)-2-((8-(4-(oxetan-3-yl)piperazine-1-carbonyl)-2,3-dihydrobenzo[b] [1,4]dioxin-5-yl)amino)-4-((tetrahydrofuran-3-yl)amino)-7H-pyrrolo[2,3-d]pyrimidine-5-carbonitrile] | 16.6% | -1.8% | 8.4%
10 | 6.52 to 7.00 | > 7.00 |  |  | CCNc1nc(Nc2ccc(C(=O)N3CC(CO)(CO)C3)c3c2OCCO3)nc2[nH]cc(C#N)c12 [Example 326, 2-((8-(3,3-bis(hydroxy-methyl)azetidine-1-carbonyl)-2,3-dihydrobenzo[b] [1,4]dioxin-5-yl)amino)-4-(ethylamino)-7H-pyrrolo[2,3-d]pyrimidine-5-carbonitrile] | -1.8% | -0.6% | 13.6%
11 | 6.00 to 6.52 | 6.00 to 6.52 |  | > 7.00 | N#Cc1c[nH]c2nc(Nc3ccc(C(=O)N4CCC(N5CCOCC5)CC4)c4c3OCC4)nc(NCC3CCCC3)c12 [Example 343, 4-((cyclo-pentylmeth-yl)amino)-2-((4-(4-morpholinopiperidine-- 1-carbonyl)-2,3-dihydro-benzofuran-7-yl)amino)-7H-pyrrolo[2,3-d]pyrimidine-5-carbonitrile] | 52% | -44.3% | 16.7%
12 | 6.00 to 6.52 | > 7.00 |  | > 7.00 | O=C(c1ccc(Nc2nc(NCC3CC3)c3c(C(F)(F)F)c[nH]c3n2)c2c1OCCO2)N1CCN(C2COC2)CC1 [Example 422, (8-((4-((cyclo-propylmeth-yl)amino)-5-(trifluoromethyl)-7H-pyrrolo[2,3-d]pyrimidin-2-yl)amino)-2,3-dihydrobenzo[b] [1,4]dioxin-5-yl) (4-(oxetan-3-yl)piperazin-1-yl)methanone] | 33.2% | 7.4% | 19.6%
13 | > 7.00 | > 7.00 | > 7.00 |  | CCNc1nc(Nc2ccc(P3(=O)CCN(C4CCOCC4)CC3)cc2OC)nc2[nH]cc(C(F)(F)F)c12 [Example 439, 4-(4-((4-(ethylamino)-5-(trifluoromethyl)-7H-pyrrolo[2,3-d]pyrimidin-2-yl)amino)-3-methoxyphenyl)-1-(tetrahydro-2H-pyran-4-yl)-1,4-azaphosphinane 4-oxide] | 55.7% | 18.8% | 43.6%
14 | 6.00 to 6.52 | 6.00 to 6.52 |  | > 7.00 | COc1cc(P2(=O)CCN(C3CC3)CC2)ccc1Nc1nc(NC(C)C)c2c(C(F)(F)F)c[nH]c2n1 [Example 440, 1-cyclopropyl-4-(4-((4-(isopropylamino)-5-(trifluoromethyl)-7H-pyrrolo[2,3-d]pyrimidin-2-yl)amino)-3-methoxyphenyl)-1,4-azaphosphinane 4-oxide] | 36.3% | 9.6% | 27.8%
15 | 6.00 to 6.52 | 6.00 to 6.52 |  | > 7.00 | O=C(c1ccc(Nc2nc(NCC3CCCC3)c3c(C(F)(F)F)c[nH]c3n2)c2c1CCO2)N1CCC(N2CCOCC2)CC1 [Example 464, (7-((4-((cyclo-pentylmeth-yl)amino)-5-(trifluoromethyl)-7H-pyrrolo[2,3-d]pyrimidin-2-yl)amino)-2,3-dihydrobenzo-furan-4-yl)(4-morpholino-piperidin-1-yl)methanone] | 44.2% | 11.5% | 12.4%
